Assay results published in publication PMC8042910, “Adiponectin-mimetic novel nonapeptide rescues aberrant neuronal metabolic-associated memory deficits in Alzheimer’s disease” (Molecular Neurodegeneration, 2021).
Residues, ends and D or L forms follow the SMILES beside them.

Assays:
[1] = Stability and half-life of Os-pep in mouse plasma; format: in vitro ADME; details: 37 °C, LC-MS/MS
Method: The stability of Os-pep in mouse plasma was evaluated. An aqueous stock solution of Os-pep was added to each mouse plasma sample (n= 3) at a final concentration of 1 μg/mL. Tubes were placed in a Thermomixer (Eppendorf, Germany) and maintained at 37 °C with rotation at 300 rpm. These samples were incubated for up to 2 h. The amount of peptide remaining after the incubation was immediately determined by liquid chromatography-tandem mass spectrometry (LC-MS/MS). At different time intervals, an aliquot (100 μL) of ice-cold acetonitrile containing 0.1 μg/mL gabapentin (internal standard) was added to a 50 μL aliquot of the sample. Deproteinized samples were analyzed after vortex-mixing and centrifugation.

WT C57BL/6 N mice = format: in vivo, mouse; details: i.p. bolus 10, 20, 30, 40 and 50 mg/kg, observed 1 week, n = 5/group, data not shown
Method: To optimize and analyze the toxicity and effective dose of Os-pep, we performed a separate group of studies using wild-type (WT) male C57BL/6 N mice to examine the toxicity of Os-pep in vivo. The WT mice were rearranged into 5 groups (n = 5 mice/group). Os-pep was administered in bolus dosages of 10, 20, 30, 40 and 50 mg/kg in normal saline to the respective groups, and the Veh-injected mice received the same amount of normal saline as WT mice. We checked for signs of systemic toxicity, such as head tilt, tremor, abnormal physical activity and squinting, for 1 week in WT mice that had been treated with i.p. bolus doses of Os-pep (10, 20, 30, 40 and 50 mg/kg).
To optimize and analyze the toxicity and effective dose of Os-pep, we performed a separate group of studies in order to assess signs of systemic toxicity, such as head tilt, tremor, changes in physical activity and squinting, for 1 week in normal WT mice injected i.p. with bolus doses of Os-pep (10, 20, 30, 40 and 50 mg/kg) to investigate the safety profile of bolus doses of Os-pep.

SH-SY5Y cells = experiment: ApoTox-Glo Triplex assay (viability, cytotoxicity, caspase 3/7), AβO-exposed cells; format: cell-based, human; details: AβO 1 μM, 12 h
Method: (§1) The ApoTox-Glo^TM Triplex assay (Promega, Madison, WI) was performed to assess the viability, cytotoxicity and caspase^3/7 activation in the human neuroblastoma SH-SY5Y and mouse hippocampal HT22 cells. SH-SY5Y and HT22 cells (2×10^4/ml) were cultured in 96-well plates (Thermo Fisher Scientific) containing DMEM supplemented with 10% FBS and 1% antibiotics and incubated at 37°C in a humidified incubator containing 5% CO2. After reaching 70% confluency, the cells were treated with AβO (1 µM) and different concentrations of Os-pep (0.5, 1, 5 and 10 µM) for 12 h. The control group (cells treated with 0.01% DMSO) was also analyzed. In addition, SH-SY5Y and HT22 cells were transfected with the AdipoR1 siRNA (h) (SC-60123) and AdipoR1 siRNA (m) (SC-60124), respectively, and treated with AβO (1 µM) and Os-pep (10 µM) for 12 h; the control group was transfected with the negative siRNA (Ambion, Thermo Fisher Scientific) and treated with 0.01% DMSO. The assay was performed according to our previously described protocols.

HT22 cells = experiment: as above; format: cell-based, mouse; details: 12 h
Method: as §1

p-IRS-1 = experiment: Neuronal insulin resistance (p-IRS-1) in mouse brain, immunoblot; format: in vivo; details: AβO-treated, APP/PS1, Adipo−/− and HFD mice, 5 μg/g, i.p., alternating days for 45 days
Method: (§2) Os-pep was dissolved in double-deionized distilled water and then prepared in normal saline to obtain the final administered concentration. The AβO, APP/PS1, Adipo^−/− and WT mice were injected i.p. with Os-pep at a dosage of 5 μg/g on alternating days for 45 days. WT, Veh-injected transgenic-APP/PS1 and Adipo^−/− mice were injected with the same volume of double-deionized water and normal saline. The WT control and sham mice as well as the Veh-injected AβO, APP/PS1, Adipo^−/− and HFD mice received the same volume of double-deionized distilled water or normal saline.
(§3) The protein concentrations of the homogenates of mouse brain tissue and cell lysates in vitro were measured using a Bio-Rad protein assay kit (Bio-Rad Laboratories, Hercules, CA), and immunoblotting was performed as we previously described, using primary antibodies (detailed information described in the supplementary Table 1). Western blotting membranes have been cut prior to original western blot images and original western blot images are available at supplementary material.
A separate cohort of animals was used to develop the HFD mouse model. Eight-week-old C57BL/6N male mice were bought from Samtako Bio (Republic of Korea). Mice were housed in the university animal housing facility under a 12 h/12 h light/dark cycle at 23°C and 60 ± 10% humidity, with food and water available ad libitum. […]

[2] = tested on: pre- and postsynaptic protein markers; experiment: Pre- and postsynaptic protein markers in mouse brain, immunoblot; format: in vivo; details: 5 μg/g, i.p., alternating days for 45 days
Method: as §2, §3

LTP = experiment: Electrophysiology, LTP in hippocampal CA1 slices; format: in vivo, mouse
[3] = tested on: learning and memory functions; experiment: Morris water maze (MWM) test; format: in vivo, mouse
Method: To evaluate the learning and memory functions of the mice, we performed the Morris water maze (MWM) and Y-maze tests. After completion of the Os-pep dosage regimen, behavioral studies were performed on AβO-injected, AβO-injected and scramble and functional AdipoR1 shRNA-treated, APP/PS1 and Adipo^−/− mice (n = 13/group) using the MWM and Y-maze tests. […] The mice were randomly selected, and the operators were unaware of the genotype and treatment details for the behavioral study. The MWM and Y-maze tests were performed as previously described.

[4] = AβO-injected, APP/PS1 and Adipo−/− mice, n = 13/group

**Q.** With `C[C@@H](O)[C@H](NC(=O)[C@@H]1CCCN1C(=O)CNC(=O)[C@H](CS)NC(=O)[C@@H]1CCCN1C(=O)CNC(=O)[C@H](CCC(N)=O)NC(=O)[C@@H](NC(=O)[C@@H](N)CS)[C@@H](C)O)C(=O)O` [Os-pep] (H-CTQGPCGPT-OH; N-terminus and C-terminus assumed) as the compound, how does the “half-life (t1/2)” value ([1]; 1 μg/mL, incubated up to 2 h, n = 3, first-order kinetics) read?
**A.** approximately 2 h

**Q.** And the remaining at 2 h, 1 μg/mL ([1]; 300 rpm, after 2 h, n = 3, 0 min set to 100%, read-out: initial concentration remained)?
**A.** 53%

**Q.** And the half-life at 1 μg/mL ([1]; triplicate samples, read-out: Half-life (printed in Fig. 8c) (converted))?
**A.** 2.03 h

**Q.** What about the “signs of systemic toxicity (head tilt, tremor, physical activity, squinting)” value (WT C57BL/6 N mice) of the same compound?
**A.** no toxicity was observed

**Q.** What about the “AβO-induced toxicity with AdipoR1 siRNA” value (SH-SY5Y cells; AdipoR1 siRNA-transfected SH-SY5Y, Os-pep 10 μM) of the same compound?
**A.** did not reduce the AβO-induced toxicity

**Q.** What about the “AβO neurotoxicity (viability, cytotoxicity, caspase 3/7)” value (SH-SY5Y cells; SH-SY5Y, Os-pep 10 μM) of the same compound?
**A.** significantly reduced AβO (1 μM) neurotoxicity

**Q.** And the “neurotoxic effects of AβO” value (SH-SY5Y cells; SH-SY5Y, cotreatment 0.5, 1, 5 and 10 μM)?
**A.** reduced the neurotoxic effects of AβO

**Q.** And the “AβO-induced toxicity with AdipoR1 siRNA” value (HT22 cells; AdipoR1 siRNA-transfected HT22, AβO 1 μM, Os-pep 10 μM)?
**A.** did not reduce the AβO-induced toxicity

**Q.** And the “AβO neurotoxicity (viability, cytotoxicity, caspase 3/7)” value (HT22 cells; HT22, AβO 1 μM, Os-pep 10 μM)?
**A.** significantly reduced AβO (1 μM) neurotoxicity

**Q.** What about the “neurotoxic effects of AβO” value (HT22 cells; HT22, AβO 1 μM, cotreatment 0.5, 1, 5 and 10 μM) of the same compound?
**A.** reduced the neurotoxic effects of AβO

**Q.** What about the “p-IRS-1 Ser636/312 levels” value (p-IRS-1) of the same compound?
**A.** significantly reducing the increase

**Q.** And the “p-IRS-1 Tyr 632 levels” value (p-IRS-1)?
**A.** significantly increasing

**Q.** What about the “pre- and postsynaptic protein levels” value ([2]; AβO-treated, APP/PS1 and Adipo−/− mice) of the same compound?
**A.** remarkably increased

**Q.** What about the “effects on pre- and postsynaptic markers, Os-pep alone” value ([2]; WT normal mice) of the same compound?
**A.** did not have any detrimental effects

**Q.** What about the LTP (LTP; APP/PS1 and Adipo−/− mice, 5 μg/g, i.p., alternating days for 45 days, n = 5–6/group) of the same compound?
**A.** improved LTP

**Q.** And the “potentiating effect on LTP with AdipoR1 silencing” value (LTP; AβO mice with shRNA-mediated silencing of AdipoR1 gene)?
**A.** significantly attenuated

**Q.** And the “suppression of LTP, scramble shRNA” value (LTP; scramble shRNA-treated AβO mice, 5 μg/g, i.p., alternating days for 45 days)?
**A.** almost completely rescued to a level comparable to that of normal controls

**Q.** What about the “spatial learning/memory functions with AdipoR1 silencing (MWM and Y-maze)” value ([3]; AβO-injected mice exposed to shRNA silencing of AdipoR1 gene, vs scramble shRNA) of the same compound?
**A.** did not improve spatial learning/memory functions

**Q.** What about the “latency to reach the submerged platform, training session” value ([3]; AβO-injected, APP/PS1 and Adipo−/− mice, 5 μg/g, i.p., alternating days for 45 days, n = 13/group) of the same compound?
**A.** decrease in the latency

**Q.** What about the “number of platform crossings, probe test” value [3, 4] of the same compound?
**A.** significantly increased number of platform crossings

**Q.** And the “time spent in the target quadrant, probe test” value [3, 4]?
**A.** more time was spent in the target quadrant
